For two substances, Kd results are on record in patent US20260061042A1, “POLYNUCLEOTIDE COMPOSITIONS AND USES THEREOF” (Pfizer Inc., priority 2024, published 2026).

Read-outs that look alike come from different tables or passages of the source.

Experiment [1] has as its target T1, E. coli CFT073 PapG-II lectin domain PapGLD N96S WT v2 (Escherichia coli, UniProt A0A0H2VDP3, N116S).
T1 sequence (A0A0H2VDP3 21-216 N116S): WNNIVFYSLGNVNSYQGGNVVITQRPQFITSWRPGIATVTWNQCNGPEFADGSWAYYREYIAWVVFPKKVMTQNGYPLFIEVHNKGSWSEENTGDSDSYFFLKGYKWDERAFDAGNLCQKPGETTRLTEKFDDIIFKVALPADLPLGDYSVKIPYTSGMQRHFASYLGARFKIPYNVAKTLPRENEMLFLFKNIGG
As to the kind of experiment: PapG Luminex ligand binding at equilibrium. The note with it: HEPES pH 7.4, 4° C. overnight. Here is the method:
(§1) To determine the ability of PapGLD mutants to bind the porcine derived globotetraosyl ceramide ligand GalNAc-Gal-Gal-Glc-ceramide (GbO4), a Luminex ligand binding assay was developed. Surfactant Protein-A (SP-A) was coupled to the surface of MagPlex beads by EDC/NHS, to capture the lipid tail of the globotetraosyl ceramide. The Globotetraosyl ceramide/SP-A beads were incubated with an eight-point threefold titration of PapG in a 96 well flat bottom white plate with final volume of 100 microliters of 50 mM HEPES PH 7.4, 10 mM NaCl, 0.0005% Tween 20 shaking at 300 rpm, 4° C. overnight. After 20-24 hours the ligand binding plates were read on a FlexMap 3D plate reader for measurement of well-bead region specific MFI. Ligand binding equilibrium dissociation constants (Kd) were calculated assuming one site specific binding and interpolated using non-linear curve fitting (GraphPad Prism) as the ligand concentration needed to achieve half-maximal binding. The Luminex derived apparent Kd values are based on approximately fifty bead counts per assay sample.
(§2) To determine Luminex ligand binding affinities of PapG mutants for the synthetic globoside ligand Gal-Glc-phenoxy-octyl-amine (GbO2Mpo), a Luminex ligand binding assay was developed based on the direct coupling of the amine reactive globoside ligand to the EDC/NHS activated carboxylic surface of MagPlex beads. Synthesis of GbO2Mpo ligand with an octyl amine linker (for coupling to beads) was performed via methods described previously. The GbO2Mpo beads were incubated with an 8-point, threefold titration of PapG in a 96-well flat bottom white plate with final volume of 100 μl of 50 mM HEPES pH 7.4, 10 mM NaCl, 0.0005% Tween 20 shaking at 300 rpm, 4° C. overnight. After 20-24 hours the ligand binding plates were read on a FlexMap 3D plate reader for measurement of well-bead region specific MFI.
(§3) Binding of PapG proteins to GbO2 or GbO4 ligands was evaluated using a Luminex platform wherein ligands were coupled to MagPlex beads via surfactant protein A (for […]) or directly using […] conjugation (for […]). This assay was used to rank order binding affinities of the mutants, reported as Kd values interpolated from protein antigen titration curves (Table 7).

In experiment [2] the target is T2, E. coli CFT073 PapG-II lectin domain PapGLD variant N96S G86A, SEQ ID NO: 14 (Escherichia coli, UniProt A0A0H2VAQ6, G106A/N116S).
T2 sequence (A0A0H2VAQ6 with tags, fused parts or gaps G106A/N116S): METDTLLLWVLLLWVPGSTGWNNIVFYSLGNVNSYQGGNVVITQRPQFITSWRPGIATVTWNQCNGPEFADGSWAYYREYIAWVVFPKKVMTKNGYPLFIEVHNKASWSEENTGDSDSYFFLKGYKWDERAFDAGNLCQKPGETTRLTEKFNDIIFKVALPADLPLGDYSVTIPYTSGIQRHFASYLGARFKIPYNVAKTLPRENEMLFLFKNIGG
As to the kind of experiment: PapG Luminex ligand binding at equilibrium. The conditions noted are these: HEPES pH 7.4, 4° C. overnight. As for the experimental part:
as §1, §2, §3

[3] abbreviates: GbO2Mpo beads, read-out: Kd (GbO2).
Where [4] appears, read: GbO4 beads, read-out: Kd (GbO4).

As a reminder, the Kd is the equilibrium constant for the complex coming apart. In the case of Gal-Glc-phenoxy-octyl-amine [GbO2], the Kd in experiment [1] (setting [3]) is 1.1 nM; in experiment [2] (setting [3]), 1.3 nM.
With GalNAc-Gal-Gal-Glc-ceramide [GbO4], the values for the Kd in experiment [1] (setting [4]) and in experiment [2] (setting [4]) were 29 nM and 15 nM, respectively.
